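Interpolation was linear, between the two tested concentrations surrounding the appropriate level; five concentrations were tested over 48 hours in 96-well plates. GI50 is the concentration that inhibits growth by half. TGI is the concentration that stops growth completely.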
Assays:
Assay in all cases: inhibition of tumour cell growth, NCI panel, 48 h
TK-10 renal = system: TK-10 renal
MCF7 breast = system: MCF7 breast
EKVX NSCLC = system: EKVX NSCLC
SN12C renal = system: SN12C renal
HT29 colon = system: HT29 colon
COLO 205 colon = system: COLO 205 colon
UO-31 renal = system: UO-31 renal
786-0 renal = system: 786-0 renal
NCI-H522 lung = system: NCI-H522 lung
U251 CNS = system: U251 CNS
HL-60(TB) leukemia = system: HL-60(TB) leukemia
HCT-116 colon = system: HCT-116 colon
OVCAR-5 ovarian = system: OVCAR-5 ovarian
KM12 colon = system: KM12 colon
SNB-19 CNS = system: SNB-19 CNS
UACC-257 melanoma = system: UACC-257 melanoma
HCC-2998 colon = system: HCC-2998 colon
K-562 leukemia = system: K-562 leukemia
ACHN renal = system: ACHN renal
M14 melanoma = system: M14 melanoma
A549 NSCLC = system: A549 NSCLC
PC-3 prostate = system: PC-3 prostate
MDA-MB-435 = system: MDA-MB-435
NCI-H460 lung = system: NCI-H460 lung
SR leukemia = system: SR leukemia
RXF 393 renal = system: RXF 393 renal
SF-295 CNS = system: SF-295 CNS
SNB-75 CNS = system: SNB-75 CNS
HOP-62 NSCLC = system: HOP-62 NSCLC
NCI-H226 lung = system: NCI-H226 lung
HS 578T breast = system: HS 578T breast
SF-268 CNS = system: SF-268 CNS
SW-620 colon = system: SW-620 colon
NCI-H23 lung = system: NCI-H23 lung
CCRF-CEM leukemia = system: CCRF-CEM leukemia
A498 renal = system: A498 renal
SF-539 CNS = system: SF-539 CNS
SK-OV-3 ovarian = system: SK-OV-3 ovarian
IGROV1 ovarian = system: IGROV1 ovarian
NCI/ADR-RES ovarian = system: NCI/ADR-RES ovarian
SK-MEL-5 melanoma = system: SK-MEL-5 melanoma
CAKI-1 renal = system: CAKI-1 renal
MALME-3M melanoma = system: MALME-3M melanoma
OVCAR-3 ovarian = system: OVCAR-3 ovarian
RPMI-8226 leukemia = system: RPMI-8226 leukemia
OVCAR-8 ovarian = system: OVCAR-8 ovarian
OVCAR-4 ovarian = system: OVCAR-4 ovarian
T-47D breast = system: T-47D breast
UACC-62 melanoma = system: UACC-62 melanoma
SK-MEL-28 melanoma = system: SK-MEL-28 melanoma
HOP-92 NSCLC = system: HOP-92 NSCLC
HCT-15 colon = system: HCT-15 colon
DU-145 prostate = system: DU-145 prostate
MDA-MB-231 breast = system: MDA-MB-231 breast
SK-MEL-2 melanoma = system: SK-MEL-2 melanoma
MOLT-4 leukemia = system: MOLT-4 leukemia
LOX IMVI melanoma = system: LOX IMVI melanoma
BT-549 breast = system: BT-549 breast

Compound: CCOC(=O)c1sc(NCC(=O)Nc2cccc([N+](=O)[O-])c2)c(C(=O)OCC)c1C
- GI50 (TK-10 renal): 0.263 µM
- TGI (TK-10 renal): 1.27 µM
- GI50 (MCF7 breast): 0.274 µM
- TGI (MCF7 breast): 1.03 µM
- GI50 (EKVX NSCLC): 1.65 µM
- TGI (EKVX NSCLC): 4.53 µM
- GI50 (SN12C renal): 0.285 µM
- TGI (SN12C renal): 0.93 µM
- GI50 (HT29 colon): 0.272 µM
- TGI (HT29 colon): 0.821 µM
- GI50 (COLO 205 colon): 0.287 µM
- TGI (COLO 205 colon): 0.846 µM
- GI50 (UO-31 renal): 0.202 µM
- TGI (UO-31 renal): 0.522 µM
- GI50 (786-0 renal): 0.254 µM
- TGI (786-0 renal): 0.907 µM
- GI50 (NCI-H522 lung): 0.251 µM
- TGI (NCI-H522 lung): 0.757 µM
- GI50 (U251 CNS): 0.274 µM
- TGI (U251 CNS): 1.08 µM
- GI50 (HL-60(TB) leukemia): 0.464 µM
- GI50 (HCT-116 colon): 0.303 µM
- TGI (HCT-116 colon): 1.36 µM
- GI50 (OVCAR-5 ovarian): 0.283 µM
- TGI (OVCAR-5 ovarian): 0.824 µM
- GI50 (KM12 colon): 0.539 µM
- TGI (KM12 colon): 3.97 µM
- GI50 (SNB-19 CNS): 0.496 µM
- TGI (SNB-19 CNS): 4.74 µM
- GI50 (UACC-257 melanoma): 1.06 µM
- TGI (UACC-257 melanoma): 5.24 µM
- GI50 (HCC-2998 colon): 1.4 µM
- TGI (HCC-2998 colon): 3.47 µM
- GI50 (K-562 leukemia): 0.333 µM
- TGI (K-562 leukemia): > 36.7 µM
- GI50 (ACHN renal): 0.289 µM
- TGI (ACHN renal): 0.797 µM
- GI50 (M14 melanoma): 0.329 µM
- TGI (M14 melanoma): 1.3 µM
- GI50 (A549 NSCLC): 0.461 µM
- TGI (A549 NSCLC): 3.06 µM
- GI50 (PC-3 prostate): 0.229 µM
- TGI (PC-3 prostate): 0.598 µM
- GI50 (MDA-MB-435): 0.486 µM
- TGI (MDA-MB-435): 1.76 µM
- GI50 (NCI-H460 lung): 0.313 µM
- TGI (NCI-H460 lung): 0.963 µM
- GI50 (SR leukemia): 0.354 µM
- GI50 (RXF 393 renal): 0.175 µM
- TGI (RXF 393 renal): 0.348 µM
- GI50 (SF-295 CNS): 0.543 µM
- TGI (SF-295 CNS): 3.77 µM
- GI50 (SNB-75 CNS): 0.79 µM
- TGI (SNB-75 CNS): 3.44 µM
- GI50 (HOP-62 NSCLC): 1.02 µM
- TGI (HOP-62 NSCLC): 4.13 µM
- GI50 (NCI-H226 lung): 0.23 µM
- TGI (NCI-H226 lung): 0.602 µM
- GI50 (HS 578T breast): 0.27 µM
- TGI (HS 578T breast): 1.03 µM
- GI50 (SF-268 CNS): 0.961 µM
- TGI (SF-268 CNS): 3.74 µM
- GI50 (SW-620 colon): 0.325 µM
- TGI (SW-620 colon): 1.9 µM
- GI50 (NCI-H23 lung): 0.241 µM
- TGI (NCI-H23 lung): 0.665 µM
- GI50 (CCRF-CEM leukemia): 0.288 µM
- GI50 (A498 renal): 0.309 µM
- TGI (A498 renal): 1.16 µM
- GI50 (SF-539 CNS): 0.3 µM
- TGI (SF-539 CNS): 0.88 µM
- GI50 (SK-OV-3 ovarian): 0.307 µM
- TGI (SK-OV-3 ovarian): 0.838 µM
- GI50 (IGROV1 ovarian): 0.238 µM
- TGI (IGROV1 ovarian): 0.693 µM
- GI50 (NCI/ADR-RES ovarian): 0.319 µM
- TGI (NCI/ADR-RES ovarian): 1.58 µM
- GI50 (SK-MEL-5 melanoma): 0.346 µM
- TGI (SK-MEL-5 melanoma): 1.23 µM
- GI50 (CAKI-1 renal): 0.267 µM
- TGI (CAKI-1 renal): 0.81 µM
- GI50 (MALME-3M melanoma): 0.231 µM
- TGI (MALME-3M melanoma): 0.598 µM
- GI50 (OVCAR-3 ovarian): 0.376 µM
- TGI (OVCAR-3 ovarian): 1.75 µM
- GI50 (RPMI-8226 leukemia): 0.366 µM
- TGI (RPMI-8226 leukemia): 1.75 µM
- GI50 (OVCAR-8 ovarian): 0.375 µM
- GI50 (OVCAR-4 ovarian): 0.897 µM
- TGI (OVCAR-4 ovarian): 5.18 µM
- GI50 (T-47D breast): 1.27 µM
- TGI (T-47D breast): 3.88 µM
- GI50 (UACC-62 melanoma): 0.173 µM
- TGI (UACC-62 melanoma): 0.381 µM
- GI50 (SK-MEL-28 melanoma): 0.291 µM
- TGI (SK-MEL-28 melanoma): 0.883 µM
- GI50 (HOP-92 NSCLC): 0.221 µM
- TGI (HOP-92 NSCLC): 0.873 µM
- GI50 (HCT-15 colon): 0.286 µM
- TGI (HCT-15 colon): 1.84 µM
- GI50 (DU-145 prostate): 0.76 µM
- TGI (DU-145 prostate): 6.32 µM
- GI50 (MDA-MB-231 breast): 1.23 µM
- TGI (MDA-MB-231 breast): 3.85 µM
- GI50 (SK-MEL-2 melanoma): 1.77 µM
- TGI (SK-MEL-2 melanoma): 4.79 µM
- GI50 (MOLT-4 leukemia): 0.342 µM
- TGI (MOLT-4 leukemia): > 33.2 µM
- GI50 (LOX IMVI melanoma): 0.172 µM
- TGI (LOX IMVI melanoma): 0.358 µM
- GI50 (BT-549 breast): 0.258 µM
- TGI (BT-549 breast): 0.769 µM
